From article PMC8583417, “Evaluation of the Antimicrobial Efficacy of N-Acetyl-L-Cysteine, Rhamnolipids, and Usnic Acid—Novel Approaches to Fight Food-Borne Pathogens” (International Journal of Molecular Sciences, 2021)

What was measured:
[1] = test system: E. coli 693/17; test: CLSM analysis, biofilm removal (preformed biofilm); format: cell-based, Escherichia coli; conditions: for Thickness (µm) subCBM80: substance at subinhibitory concentration
Description: (§1) Biofilm prevention and removal analyses were performed using previously determined minimum inhibitory and subinhibitory concentrations for metabolic activity (MICBM80, subCBM80; MICMPB80, subCMPB80) of NAC, RLs, and UA specific for each tested strain. Selected concentrations were used to evaluate the inhibition of biofilm formation (biofilm prevention) and the reduction in previously formed biofilms (biofilm removal) for the same set of microorganisms, with the exception of S. Infantis, which was excluded from the analysis due to its inability to form biofilm in the selected microtiter plate. Biofilm prevention and removal were observed using CLSM with specific staining to distinguish between live and membrane-compromised cells. Images were analyzed to evaluate (i). the total volume of the biomass, (ii). ratios of live and membrane-compromised cells, and (iii). to calculate biofilm volume reduction for individual organisms after the respective treatment types. The total biofilm volume was normalized by the area of the well and expressed as an average biofilm thickness. Complete data are provided in Supplementary Materials (Tables S1–S8).
(§2) At first, bacterial suspensions were cultivated in microtiter plates to produce overnight biofilms (18 h). […] cells were then washed out, and the remaining biofilms were further cultivated for an additional 20 h with selected compounds. Following biofilm cultivation, biomass was observed using CLSM with live/membrane-compromised cell staining. Biomass images from biofilm removal treatments were similar to results from biofilm prevention, where biomass was highly diversified across the bacterial species and strains. Visually, biomass images were fairly consistent within the quadruplicates for each tested organism. Non-treated biofilms of S. aureus contained consistent biomass spread across the well (S. aureus 816) or grown around the edges (S. aureus 1241). […] PI staining identified membrane-compromised cells spread across S. aureus 816 biomass and incorporated in the edge of biomass and/or in the central part of the well (Figure 4B,C). […] Membrane-compromised cells appeared contained around the edges (S. aureus 1241), disturbed across the well (in both strains of L. monocytogenes), or in separated biomass in the central part of the well (in both strains of E. coli when treated with the subinhibitory concentration of RLs) (Figure 4D,E).
(§3) For both inhibition and reduction of biofilms, overnight cultures from BHI were diluted in TSB + 1% Glc to reach an absorbance of 0.08 to 0.1 at 625 nm. The inoculum (150 µL) was transferred into wells of the 96-well flat-bottomed Ibidiμ-Plate (Ibidi, Gräfelfing, Germany) and mixed with 150 µL of each of the three tested substances in technical quadruplicates, followed by incubation at 37 °C for 24 h. Simultaneously, the prepared bacterial suspensions were inoculated to an additional microtiter plate (200 µL) and allowed to form biofilm overnight (18 h at 37 °C). After the incubation, the content of the well was drained off, and 200 µL of each of the three tested substances was added to the plate, which was then incubated for an additional 20 h. The used concentrations of the substances represented the subinhibitory and minimum inhibitory concentrations for metabolic activity (subCBM80, MICBM80; subCMPB80, MICMPB80). Both setups contained a positive control of the bacterial growth (inoculum mixed with sterile TSB + 1% Glc medium) and a control monitoring microbial contamination (sterile medium). Non-treated wells were used as a positive control for comparison between non-treated and treated biofilm mass.
(§4) Prior to the imaging, the wells were stained with the LIVE/DEAD® BacLight™ Bacterial Viability Kit (Thermo Fisher Scientific, MA, USA) following the manufacturer’s guidelines and Drago et al.. […]

[2] = test system: E. coli 683/17; test: CLSM analysis, biofilm removal (preformed biofilm); format: cell-based, Escherichia coli; conditions: for Thickness (µm) subCBM80: substance at subinhibitory concentration
Description: as §1, §2, §3, §4

[3] = test system: S. aureus 816; test: MIC for reduction of preformed biofilm (crystal violet staining); format: cell-based, Staphylococcus aureus; conditions: for MICBR80: ≥80% reduction of preformed biofilm (18 h), 20 h with substance
Description: Ten concentrations of NAC, RLs, and UA were tested to determine the minimum inhibitory concentration for planktonic growth, and subsequently, the six highest concentrations were applied on preformed biofilms to evaluate the biofilm eradication ability of the compounds. MIC was defined as the lowest substance concentration able to inhibit at least 80% of microbial growth (MICPC80 for planktonic cells, MICBC80 for further growth of biofilm cells), inhibit 80% of metabolic activity (MICBM80 for biofilm metabolic activity, MICMPB80 for metabolic activity of preformed biofilm), prevent biofilm formation by at least 80% (MICBF80 for biofilm formation), or reduce a preformed biofilm by at least 80% (MICBR80 for biofilm reduction). The results of MICs are summarized in Table 1 (planktonic cells) and Table 2 (biofilm-associated cells).
The determination of MICs was performed according to Chlumsky et al.. Briefly, 96-well flat-bottomed microtiter plates were inoculated with 75 µL (for biofilm formation) or 100 µL (for preformed biofilm) of bacterial suspension (A625nm 0.08 to 0.1) in technical triplicates and were then carefully mixed with the dilution series of the test substances (24 h cultivation at 25 °C for S. Infantis, 37 °C for other strains) or were directly cultivated to preform biofilms (18 h). For a positive control of bacterial growth, the inoculum was mixed with a pure sterile medium. Furthermore, the sterile medium was included in the plate as a marker of potential microbial contamination. To evaluate planktonic cells growth (MICPC80) and further growth of biofilm cells (MICBC80), the optical density of the content of the microtiter plates was measured spectrophotometrically at 625 nm before and after 24 h (for biofilm formation) of cultivation or before and after additional 20 h incubation with the tested compound (for preformed biofilm). The difference of A625nm was considered as a measure of the ability of cells to grow in the presence of the tested substances. To evaluate the inhibition of biofilm formation (MICBF80) and reduction in preformed biofilms (MICBR80), biomass was quantified using crystal violet staining, and its metabolic activity (MICBM80 and MICMPB80) was estimated by using the MTT (thiazyl tetrazolium bromide, Sigma-Aldrich, USA) reduction assay, both measured spectrophotometrically at 595 nm.
All inhibitions were calculated using the formula of Chlumsky et al. below (Equation (1)):(1) A625(595)nm inhibition (%)=A625(595)nm (control) – A625(595)nm(natural substance)/A625(595)nm (control)× 100 where A625(595)nm (control) is the absorbance of bacterial suspension/biofilm itself, and A625(595)nm(natural substance) is the absorbance of the bacterial suspension/biofilm with the added natural substance (NAC, RLs, and UA).
When the minimum inhibitory concentration could not be determined, the MIC was established as >the highest tested concentration for NAC, RLs, and UA.

[4] = 20 h, subinhibitory concentration
[5] = preformed biofilm, 20 h exposure, mean ± SD
[6] = preformed biofilm, 20 h exposure, substance at its MIC, mean ± SD

Row | Structure (SMILES) | proportion of membrane-compromised cells [1, 4] | Thickness (µm) subCBM80 [1, 5] | proportion of membrane-compromised cells [2, 4] | Thickness (µm) subCBM80 [2, 5] | maximal achieved inhibition (MICBR80 not reached), biofilm reduction ([3]; preformed biofilm, within tested concentrations) | MICBR80 [3] | Thickness (µm) MICBM80 [1, 6] | Thickness (µm) MICBM80 [2, 6]
1 | CC(=O)c1c(O)c(C)c(O)c2c1OC1=CC(=O)C(C(C)=O)C(=O)C12C (single isomer, unassigned; (+)) [UA, (+)-usnic acid] | up to 40% | 254 ± 81.8 µm | up to 40% | 285 ± 38.5 µm | 35% | > 31.3 µg/mL | – | –
2 | CC(=O)N[C@@H](CS)C(=O)O [NAC, N-Acetyl-L-cysteine] | – | 181 ± 33.7 µm | – | 128 ± 31.6 µm | – | 12,500 µg/mL | 222 ± 68.8 µm | 153 ± 33.3 µm
